Experimental data taken from the METLIN SMRT retention time set (Domingo-Almenara et al. 2019).

Assay: gradient 5% acetonitrile 3 min, to 50% in 2 min, to 85% in 15 min, held 3 min, 100 µL/min
Details: column: Zorbax Extend-C18 2.1 x 50 mm; eluents: water / acetonitrile, 0.1% formic acid
In short: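 Mixtures of ~100 pure standards were chromatographed on a Zorbax Extend-C18 column (2.1 × 50 mm, 1.8 μm) at 100 μL/min using water and acetonitrile, each with 0.1% formic acid. Detection used a quadrupole time-of-flight mass spectrometer in positive and negative ionization mode, and data collection spanned 3 months. Retention time was obtained from adduct peaks picked computationally and each checked manually.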

Row | Structure (SMILES) | RP-LC retention time [s]
1 | CCN1C(=O)c2c(C(=O)NCc3ccc(Cl)cc3)ncn2CC1(C)C(=O)NC1CCCC1 (stereo not drawn) | 798
2 | CNC(=O)[C@@H]1CN(C(=O)CCc2cc(OC)no2)C[C@H]1c1n[nH]c(C)n1 | 553
3 | Cn1ccc2cc(S(=O)(=O)N3CCCC(C(=O)NCCN4CCCCC4)C3)ccc21 (stereo not drawn) | 654
4 | CCc1noc(NC(C)=O)c1-c1ccc(C)c(S(=O)(=O)Nc2c(C)cc(C)cc2C)c1 | 904
5 | CCCCNc1nc(N)ncc1[N+](=O)[O-] | 790
6 | O=C(NC1CCCCC1)N1CCC(c2noc(-c3ccccc3)n2)C1 (stereo not drawn) | 939
7 | COCCNC(=O)c1nc(-c2ccnc(N3CCCC3)c2)no1 | 585
8 | CCn1c(=O)c2c(cc(C)n2C)n(CC(=O)Nc2ccc(C)cc2Cl)c1=O | 871
9 | O=C(CSc1nccn1-c1cccc(C(F)(F)F)c1)Nc1nccs1 | 728
10 | COC(=O)c1c(C)[nH]c(C(=O)N2CCCC(C(=O)N3CCN(c4ccc(OC)cc4)CC3)C2)c1C (stereo not drawn) | 707
11 | O=C1COc2c1ccc(O)c2O | 623
12 | COC(=O)c1ccc(C(=O)OC)c(NC(=O)N2CCC(CN3CCC(C)CC3)CC2)c1 | 678
13 | Cc1cc(C)c(CNC(=O)C2CCN(c3cnc(N4CCSCC4)nc3)CC2)c(C)c1 | 959
14 | Cc1cc(Cl)ccc1S(=O)(=O)N1C[C@H](F)C[C@@H]1C(=O)N1CCOCC1 | 762
15 | CC(C)N1CCn2cc(S(=O)(=O)NCc3ccccc3Cl)cc2C1=O | 769
16 | CCCNC(=O)C1CCCN(c2ccc(SCC(=O)Nc3cccc(Cl)c3)nn2)C1 (stereo not drawn) | 683
17 | Cc1ccc2c(c1)N(CCC(C)C)N=C(C(=O)N1CCCC1)S2(=O)=O | 939
18 | O=C(NC1CC1)c1ccc(OCC2CCN(C(=O)C3(c4ccccc4)CC3)CC2)cc1 | 859
19 | CCCCN(C)C(=O)C1CCN(S(=O)(=O)c2ccc3c(c2)CCCC(=O)N3)CC1 | 719

Row | Structure (SMILES) | RP-LC retention time [s]
20 | Cc1nc(-c2csc(S(=O)(=O)N3CCC(C(=O)NCC4CCCO4)CC3)c2)no1 (stereo not drawn) | 725
21 | CCn1ccc2cc(S(=O)(=O)N3CCC(C(=O)N4CCN(c5ccccn5)CC4)CC3)ccc21 | 674
22 | Cn1cc(-c2cnn3c(N)c(Br)c(C4CCCNC4)nc23)cn1 (stereo not drawn) | 613
23 | CCC(=O)Nc1ccc2c(c1)nc(CN1CCN(S(C)(=O)=O)CC1)n2CC | 586
24 | Cn1cnc(S(=O)(=O)N2CCOc3ccc(NC(=O)C4CC4)cc3C2)c1 | 658
25 | O=C(Nc1ccc(F)cc1)C1CCN(c2cc(N3CCCCC3)ncn2)CC1 | 696
26 | O=S(=O)(Nc1ccc(Cn2cncn2)cc1)c1ccc(F)cc1 | 701
27 | CCCNC(=O)N1C[C@@H]2CCCN3CCC[C@@H]([C@H]23)[C@H]1CCCC(=O)NCC1CC1 | 576
28 | C=CCNC(=O)Cn1c2c(c(=O)n3nc(-c4ccc(C)cc4)nc13)CCC2 | 720
29 | C=Cc1ccc(Cn2ccn(-c3cccc(Cl)c3C)c(=O)c2=O)cc1 | 843
30 | COc1ccc(/C=C\c2onc(C)c2NC(C)=O)cc1S(=O)(=O)N1CCN(c2ncccn2)CC1 | 738
31 | Cc1cccc(CN2CCCN(c3ncccc3-c3nc(C(C)C)no3)CC2)c1 | 733
32 | COc1ccc(-c2nnc(N3CCC(C(=O)NCc4ccco4)CC3)o2)cc1 | 738
33 | COCC1CN(C(C)=O)CC12CCN(C(=O)C1CC=CCC1)CC2 (stereo not drawn) | 671
34 | CC1CCN(Cc2csc(N3CCN(C(=O)c4ccc(C#N)cc4)CC3)n2)CC1 | 638
35 | COc1cc(CN2C[C@@H]3C(=O)N(CCCN4CCCC4=O)C(=O)[C@@H]3C2)ccc1OC(C)C | 610
36 | O=C(C1CCN(c2ncccc2-c2nc(-c3ccccc3)no2)CC1)N1CCN(c2ncccn2)CC1 | 967
37 | CC1CCN(S(=O)(=O)c2ccc3nn(Cc4ccccc4F)c(=O)n3c2)CC1 | 653
38 | CCS(=O)(=O)N1CCC2(CC1)NC(=O)N(Cc1ccc(Cl)cc1)C2=O | 767

More lines, now with the values ahead:

Row | RP-LC retention time [s] | Structure (SMILES)
39 | 775 | CCNC(=O)CCc1nc2ccccc2n(CC(=O)Nc2ccccc2OCC)c1=O
40 | 659 | Cc1ccc(C(=O)N2CCN(c3nnc4cccc(C)n34)CC2)s1
41 | 769 | Cc1cnc2c(c1SCC(=O)N(C)c1ccccc1)c(=O)n(C)c(=O)n2C
42 | 1020 | c1ccc(-c2nc(-c3cn(-c4ccccc4)nn3)no2)cc1
43 | 740 | O=C(C1=CN(c2ccccc2F)c2cc(F)ccc2S1(=O)=O)N1CCOCC1
44 | 590 | CN(C)CCNc1nc(-c2ccc(C(C)(C)C)cc2)nc2ccccc12
45 | 813 | CCCC(=O)OCCCNc1nc(-c2ccc(Cl)cc2)nc2ccccc12
46 | 974 | Cc1cccc(NC(=O)N2CCc3nc(-c4ccc(F)cc4)ncc3C2)c1C
47 | 882 | COc1ccc(CN2CC3(CCN(S(=O)(=O)Cc4ccccc4)CC3)C2=O)cc1
48 | 706 | Cc1cc(C)n(CCC(=O)NCc2cccnc2Oc2ccccc2)n1
49 | 738 | CC1(C)COc2ccc(NC(=O)CN3C(=O)c4ccccc4C3=O)cc2NC1=O
50 | 972 | COc1ccc(OC)c(-c2nc(Nc3ccc(C)c(Cl)c3)sc2CC(=O)O)c1
51 | 671 | COc1ccc(-c2nc3ccccn3c2Nc2ccc(Cl)cc2)cc1
52 | 855 | O=C(NC1CC1)[C@@H]1C[C@H](Oc2ccccc2)CN1C(=O)C1(c2ccccc2)CC1
53 | 719 | O=C(Nc1cccc(-c2nnc3n2CCCC3)c1)C1(c2ccccc2)CC1
54 | 810 | O=C(Cn1nc2c(Oc3cccc(F)c3)nccn2c1=O)Nc1ccccc1
55 | 854 | O=C(c1cn2ccccc2n1)N1CCN(c2ccccc2Cl)CC1
56 | 916 | CCOC(=O)c1nc(N(C)c2ccccc2C)c2ccccc2n1
57 | 726 | COc1cc(NC(=O)Cn2ccc3ccc(-c4nnc(C)o4)cc32)cc(OC)c1OC
58 | 712 | CCOc1ccc(C(C)NC(=O)C2CCN(c3cnc4nccnc4c3)CC2)cc1 (stereo not drawn)
59 | 1160 | CCc1ccc(NC(=O)c2cn(CC3CCCO3)cc3c(=O)n(-c4ccccc4)nc2-3)cc1 (stereo not drawn)
60 | 1040 | O=C(O)CC1(CC(=O)Nc2nc(-c3cccc4ccccc34)cs2)CCCC1
61 | 725 | CN1C(=O)C2(CCN(C(=O)c3ccc(C#N)cc3)C2)c2ccccc21 (stereo not drawn)
62 | 1010 | Cc1cccc(CNC(=O)C2CCCN(S(=O)(=O)c3cc(-c4noc(C)n4)cs3)C2)c1 (stereo not drawn)
63 | 1030 | CCc1ccc(NC(=O)C(C)Oc2cc(C(F)(F)F)c3c(C)nn(C)c3n2)cc1 (stereo not drawn)

Row | RP-LC retention time [s] | Structure (SMILES)
64 | 867 | CSc1cccc(NC(=O)NC2CCN(c3ccc(F)c(C)c3)C2=O)c1 (stereo not drawn)
65 | 794 | CSc1ccc(CNC(=O)Cc2nnc(-c3cccc(F)c3)o2)cc1
66 | 895 | O=c1[nH]c2ccccc2nc1-c1cc(Cl)ccc1NS(=O)(=O)c1ccccc1
67 | 940 | Cc1ccc(CNC(=O)Cn2cccc2-c2nnc(-c3ccccc3)o2)cc1
68 | 997 | CCOc1ccc(-c2c(C#N)c(N)nc(SCC(=O)OCc3ccccc3)c2C#N)cc1
69 | 1180 | Cc1ccccc1OCCCC(=O)Nc1nc(-c2ccccc2)cs1
70 | 616 | CCCN1C(=O)C(C)(C(=O)NCc2ccc(C)cc2)Oc2cccnc21 (stereo not drawn)
71 | 816 | CCOC(=O)c1c(C)[nH]c(CCC(=O)NCc2ccc(C)o2)c1C
72 | 562 | O=C(NCCCO)c1ccc(CSc2nc3ccccc3[nH]2)cc1
73 | 734 | O=C(NC1CCCc2ccccc21)C1CCCN(c2ccnc(-c3ccc(F)cc3)n2)C1 (stereo not drawn)
74 | 741 | Cc1ccc(C(C)NC(=O)C2CCN(c3cnc4nccnc4c3)CC2)c(C)c1 (stereo not drawn)
75 | 808 | CCOC(=O)c1[nH]c(C)c(CCC(=O)N2CCC(C(=O)NCc3ccccc3Cl)CC2)c1C
76 | 646 | O=C(NCc1ccc(F)cc1F)C1CCN(c2ccc(SCc3ccccc3)nn2)CC1
77 | 772 | COC(=O)c1ncn2c1C(=O)N(Cc1ccccc1F)C(C)(C(=O)NCc1ccc(C)cc1)C2 (stereo not drawn)
78 | 612 | CCOc1ccccc1NC(=O)Nc1ccc2nc(N3CCN(C)CC3)cc(C)c2c1
79 | 832 | O=C(c1n[nH]c2ccccc12)N1CCN(c2ccc(C(F)(F)F)cn2)CC1
80 | 857 | Cc1ccc(-c2nc(-c3ccc(-n4ccnc4)nc3)no2)cc1C
81 | 1040 | CCOC(=O)c1cc(S(=O)(=O)N2CCCC2C(=O)Nc2nc3ccc(C)cc3s2)cn1C (stereo not drawn)
82 | 1000 | COc1ccc(-c2noc(C3(NC(=O)c4ccco4)CCCCC3)n2)cc1
83 | 660 | COc1ccc(C(O)CN2CCN(c3ccccc3F)CC2)cc1 (stereo not drawn)
84 | 828 | COc1cccc(Nc2c(-c3ccccc3)nc3cnccn23)c1
85 | 700 | CCc1nn2c(CNC(=O)c3cccnc3)c(-c3ccccc3)nc2s1
86 | 670 | O=C(CSc1nc2ccccc2c(=O)n1Cc1cccs1)Nc1ncn[nH]1
87 | 819 | O=C(C1CC1)N1CCc2ccc(NS(=O)(=O)/C=C/c3ccccc3)cc21
88 | 707 | CCCNC(=O)N(C1CCOCC1)C1CCN(C(=O)c2ccc3ccccc3n2)CC1
